Reference: US8901301B2, “Pyrrolo[2,3-]pyridine kinase inhibitors” (Plexxikon Inc., priority 2009, dated 2014)

Key:
Raf kinases = assay: Biochemical assay, Raf kinases as well as other kinases
Method: Assays for biochemical and cell based activity are known in the art, for example, as described in PCT publication WO 2007/002433, the disclosure of which is hereby incorporated by reference as it relates to such assays. For example, the biochemical activity IC50 values are determined with respect to inhibition of A-Raf kinase activity, B-Raf kinase activity, c-Raf-1 kinase activity, or B-Raf V600E kinase activity, where inhibition of phosphorylation of a peptide substrate is measured as a function of compound concentration. Compounds to be tested are diluted in dimethyl sulfoxide to a concentration of 0.1 mM. These are serially diluted 15 μL into 30 μL of dimethyl sulfoxide seven times in 96 well plates for a total of 8 dilution points, and for each dilution point 1 μL is added to a well of an assay plate. Plates are prepared such that each well in a 384 well plate contains 1 μL of compound in 10 μL volume with 0.1 ng Raf enzyme (i.e. any of A-Raf, B-Raf, c-Raf-1 or B-Raf V600E, Upstate Biotechnology or prepared by methods known to one of skill in the art), 50 mM HEPES, pH 7.0, 50 mM NaCl, 2 mM MgCl2, 1 mM MnCl2, 0.01% Tween-20, 1 mM DTT, and 100 nM biotin-MEK1 as substrate. The reaction is started with addition of 10 μL of 200 μM ATP (i.e. final 100 μM ATP). After incubation of the kinase reaction for 45 minutes at room temperature, 5 μL/well of Stop Solution is added (25 mM Hepes pH 7.5, 100 mM EDTA, 0.01% BSA with donor beads (Streptavidin coated beads, Perkin Elmer), acceptor beads (Protein A coated, Perkin Elmer), and anti phosphor MEK1/2 antibody (CellSignal), each at final concentration 10 μg/mL). The plates are incubated for 3 hours at room temperature and read on Envision reader (Perkin Elmer). Phosphorylation of Mek1 results in binding of the anti-phosphor-MEK1/2 antibody and association of the donor and acceptor beads such that signal correlates with kinase activity. The signal vs. compound concentration is used to determine the IC50.

SW620 cells = assay: Cell growth inhibition (Cell Titer Glo), SW620; format: cell-based; conditions: Homo sapiens, SW-620, 72 h; wild-type B-RAF cell line, 3 days
Method: Compounds are assessed in a variety of cell based assays, employing cells with or without B-Raf V600E mutation, for example cell lines with B-Raf V600E mutation (A375 and COLO205), as well as tumorigenic cell lines with wild-type B-RAF (SW620 and SK-MEL-2). Reagent and assay conditions are as follows:
SW620 cells growth medium: • Leibovitz's L-15 medium, 2 mM L-glutamine, 10% fetal bovine serum.
SK-MEL-2 cells growth medium: • Minimum Eagle essential medium, 2 mM L-glutamine, 1.5 g/L sodium bicarbonate, 0.1 mM non-essential amino acids, 1.0 mM sodium pyruvate, 10% fetal bovine serum. • On day 1, cells are seeded in growth media in 200 μL per well in a 96-well polystyrene tissue culture plate at 2,000 cells per well (A375, COLO205, SK-MEL-2) or 5,000 cells per well for SW620, and incubated at 37° C. and 5% CO2 overnight. • On day 2, compound at 4 mM in dimethyl sulfoxide is serially diluted 1:4 (10 μL with 30 μL dimethyl sulfoxide) seven times for a total of 8 concentration points. For each dilution point a 1 μL aliquot is added to a well containing cells (highest dilution point at 20 μM), with 1 μL of dimethyl sulfoxide as a negative control (each sample at 0.5% dimethyl sulfoxide). The cells are incubated for 3 days at 37° C. in 5% CO2. • On day 5, Cell Titer Glo (Promega) is thawed and added 100 μL to each well and the plate shaken for 1-2 minutes. The plates are incubated for 10 minutes at room temperature, then […] signal is read (e.g. on Safire reader). The measured fluoresence correlates directly with cell number, such that the reading as a function of compound concentration is used to determine the IC50 value.

Tec = target: T1, Tec (Homo sapiens, UniProt P42680); assay: Biochemical inhibitory activity, other protein kinases: Tec; conditions: for Kinase having IC50 of <1 μM: listing of the kinase means IC50 <1 μM; for Kinase having IC50 of >1 μM: listing of the kinase means IC50 >1 μM
T1 sequence (P42680 1-631): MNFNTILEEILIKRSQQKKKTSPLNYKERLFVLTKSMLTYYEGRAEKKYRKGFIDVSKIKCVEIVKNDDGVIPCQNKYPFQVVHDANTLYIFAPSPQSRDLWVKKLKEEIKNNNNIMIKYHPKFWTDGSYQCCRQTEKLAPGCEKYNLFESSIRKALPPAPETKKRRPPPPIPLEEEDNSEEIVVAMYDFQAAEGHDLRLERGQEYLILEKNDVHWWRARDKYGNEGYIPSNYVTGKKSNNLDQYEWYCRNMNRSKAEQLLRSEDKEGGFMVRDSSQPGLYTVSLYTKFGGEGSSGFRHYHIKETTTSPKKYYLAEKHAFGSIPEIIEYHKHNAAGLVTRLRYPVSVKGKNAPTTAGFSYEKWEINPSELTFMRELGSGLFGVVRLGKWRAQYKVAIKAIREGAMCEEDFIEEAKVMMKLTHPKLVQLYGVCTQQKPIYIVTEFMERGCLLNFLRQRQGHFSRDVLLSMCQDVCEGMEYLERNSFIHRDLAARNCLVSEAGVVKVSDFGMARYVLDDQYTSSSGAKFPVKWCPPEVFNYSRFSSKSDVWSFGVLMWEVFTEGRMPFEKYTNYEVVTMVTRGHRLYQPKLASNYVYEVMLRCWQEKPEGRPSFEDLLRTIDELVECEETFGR

Structure (SMILES): CCCS(=O)(=O)Nc1ccc(F)c(C(=O)c2c[nH]c3ncc(-c4cnc(OC)nc4)cc23)c1F [Compound P-0001, propane-1-sulfonic acid {2,4-difluoro-3-[5-(2-methoxy-pyrimidin-5-yl)-1H-pyrrolo[2,3-b]pyridine-3-carbonyl]-phenyl}-amide]
- Selectivity of inhibitory activity, Raf kinases versus other kinases (Raf kinases): selective activity to the Raf kinases
- IC50 (SW620 cells): > 20 µM
- Kinase having IC50 of <1 μM (Tec): Tec

Structure (SMILES): CCCS(=O)(=O)Nc1ccc(F)c(C(=O)c2c[nH]c3ncc(C#N)cc23)c1F [Compound P-0002, propane-1-sulfonic acid [3-(5-cyano-1H-pyrrolo[2,3-b]pyridine-3-carbonyl)-2,4-difluoro-phenyl]-amide]
- Selectivity of inhibitory activity, Raf kinases versus other kinases (Raf kinases): selective activity to the Raf kinases
- IC50 (SW620 cells): > 20 µM
- Kinase having IC50 of >1 μM (Tec): Tec

Structure (SMILES): CCCS(=O)(=O)Nc1cccc(C(=O)c2c[nH]c3ncc(C#N)cc23)c1F [Compound P-0003, propane-1-sulfonic acid [3-(5-cyano-1H-pyrrolo[2,3-b]pyridine-3-carbonyl)-2-fluoro-phenyl]-amide]
- Selectivity of inhibitory activity, Raf kinases versus other kinases (Raf kinases): selective activity to the Raf kinases
- IC50 (SW620 cells): > 20 µM

Structure (SMILES): N#Cc1cnc2[nH]cc(C(=O)c3c(F)ccc(NS(=O)(=O)c4cc(F)ccc4F)c3F)c2c1 [Compound P-0004, N-[3-(5-cyano-1H-pyrrolo[2,3-b]pyridine-3-carbonyl)-2,4-difluoro-phenyl]-2,5-difluoro-benzenesulfonamide]
- Selectivity of inhibitory activity, Raf kinases versus other kinases (Raf kinases): selective activity to the Raf kinases
- IC50 (SW620 cells): > 20 µM
- Kinase having IC50 of >1 μM (Tec): Tec

Structure (SMILES): N#Cc1cnc2[nH]cc(C(=O)c3c(F)ccc(NS(=O)(=O)c4cccc(F)c4)c3F)c2c1 [Compound P-0005, N-[3-(5-cyano-1H-pyrrolo[2,3-b]pyridine-3-carbonyl)-2,4-difluoro-phenyl]-3-fluoro-benzenesulfonamide]
- Selectivity of inhibitory activity, Raf kinases versus other kinases (Raf kinases): selective activity to the Raf kinases
- IC50 (SW620 cells): > 20 µM
- Kinase having IC50 of >1 μM (Tec): Tec

Structure (SMILES): N#Cc1cnc2[nH]cc(C(=O)c3c(F)ccc(NS(=O)(=O)N4CCCC4)c3F)c2c1 [Compound P-0006, pyrrolidine-1-sulfonic acid [3-(5-cyano-1H-pyrrolo[2,3-b]pyridine-3-carbonyl)-2,4-difluoro-phenyl]-amide]
- Selectivity of inhibitory activity, Raf kinases versus other kinases (Raf kinases): selective activity to the Raf kinases
- Kinase having IC50 of <1 μM (Tec): Tec

Structure (SMILES): CN(C)S(=O)(=O)Nc1ccc(F)c(C(=O)c2c[nH]c3ncc(C#N)cc23)c1F [Compound P-0007, N,N-dimethylamino-sulfonic acid [3-(5-cyano-1H-pyrrolo[2,3-b]pyridine-3-carbonyl)-2,4-difluoro-phenyl]-amide]
- Selectivity of inhibitory activity, Raf kinases versus other kinases (Raf kinases): selective activity to the Raf kinases
- IC50 (SW620 cells): > 20 µM
- Kinase having IC50 of >1 μM (Tec): Tec
